Entries after “also recorded” stand apart in the source; their conditions may differ. Read-outs that look alike come from different tables or passages of the source.
Tests used:
[1] = molecular target: T1, prostaglandin E2-induced contractions of segments of guinea pig ileum (Cavia porcellus, UniProt A0A286XHJ6); assay: Prostaglandin (PGE) Antagonism Assay in guinea pig ileum; set-up: key to PGE antagonism in guinea pig ileum, activity: Active: A concentration of test compound was determined to be "active" if it produced a dose ratio significantly greater than that obtained in a series of blank treatments; conditions: for Kb: Schild plot, guinea pig ileum, 37° C., read-out: PGE antagonism in guinea pig ileum (pA2) (converted); for PGE antagonism in guinea pig ileum, activity: initial concentration of test compound
T1 construct: The ileums were then quickly removed from the guinea pigs; from tissue; host or cells: guinea pig ileum segments (male albino guinea pigs)
T1 sequence (A0A286XHJ6 1-405): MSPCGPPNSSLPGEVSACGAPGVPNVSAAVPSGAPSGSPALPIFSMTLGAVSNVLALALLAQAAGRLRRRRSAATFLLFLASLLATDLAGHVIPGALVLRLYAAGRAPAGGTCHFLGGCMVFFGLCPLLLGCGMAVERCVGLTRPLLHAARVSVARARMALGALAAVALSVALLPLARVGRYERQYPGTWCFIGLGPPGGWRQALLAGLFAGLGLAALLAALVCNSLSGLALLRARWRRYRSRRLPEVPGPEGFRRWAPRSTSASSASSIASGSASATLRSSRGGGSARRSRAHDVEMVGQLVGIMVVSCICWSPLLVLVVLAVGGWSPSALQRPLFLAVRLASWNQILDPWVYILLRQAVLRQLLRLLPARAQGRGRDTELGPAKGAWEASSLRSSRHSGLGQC
Description: In order to determine the effectiveness of several of the compounds of the present invention ("test compounds") as prostaglandin E2 antagonists,a prostaglandin antagonism assay was conducted, as described below, to determine the ability of these compounds to inhibit prostaglandin E2 -induced contractions of segments of guinea pig ileum.
Male albino guinea pigs weighing 200 to 500 grams were sacrificed by cervical dislocation.
The ileums were then quickly removed from the guinea pigs and placed in a modified Tyrode solution, a solution which is known to those of skill in the art, containing one-half of the usual amount of magnesium ions.
Segments of ileum about 2 cm long were then cut and mounted in a 10-mL tissue bath containing the modified Tyrode solution. The solution was maintained at 37° C. and aerated with a gaseous mixture of 95% oxygen and 5% carbon dioxide.
Submaximal contractions of the ileum segments were then generated by injecting prostaglandin E2 into the bath, and detected isotonically. Data for a control prostaglandin E2 dose response curve plotting concentration of prostaglandin E2 versus number of contractions generated was then obtained by experimentally adjusting the dose of the prostaglandin E2 being injected into the tissue bath, in a manner known by those of skill in the art.
Solutions or suspensions containing an initial amount of a test compound in modified Tyrode solution ("test solutions/suspensions") were then separately substituted for the tissue bath. Each test solution/suspension was then kept in constant contact with the ileum tissue, except for brief periods to drain the bath in preparation for rinsing with fresh test solution/suspension. Different doses of prostaglandin E2 were again injected into the test solutions/suspensions.
A second prostaglandin E2 dose response curve was then generated for PGE2 in the presence of a test compound.
A dose ratio of EC50 doses (that dose of a compound or drug which is necessary to elicit a 50% maximal biological response and, thus, which is necessary to elicit a 50% reduction in the contractions of the guinea pig ileum segments in this assay) was then calculated from the results of each test in a manner known by those of skill in the art. […] Duplicate tests were conducted on each concentration of test compound.
If the initial concentration of a test compound was determined to be "active," then varying concentrations of the test compound were then assayed. As is shown in Table I below, all test compounds analyzed in this assay were determined to be "active" as prostaglandin E2 antagonists at the initial concentration.
The pA2 value (a statistical constant which is a common measure of expressing the potency of a particular drug as a competitive antagonist) was then calculated for each test compound by schild plot calculations, as described by H. O. Schild, "pA, A New Scale for the Measurement of Drug Antagonism," Br. J. Pharmacol, 2, 189 (1947), according to the following mathematical formula: […]
to quantitate the effectiveness of the test compounds as prostaglandin E2 antagonists.
The compounds of the present invention which were tested in this assay, and for which results are presented in Table I, correspond to the particular examples specified in Table I.

[2] = system: mice; assay: Writhing Assay (PBQ-induced writhing, analgesic activity); assay type: in vivo, mouse (Charles River male albino); conditions: for rank order of potency in the Writhing Assay: more potent compounds of the invention
Text: The Writhing Assay is one of the most widely-used experimental procedures for measuring the analgesic activity of different narcotic and nonnarcotic analgesic agents, and involves the continuous, chemically-induced pain of visceral origin to an animal, such as a mouse or rat. [Gyires et al., Arch. int. Pharmacodyn, 267, 131-140 (1984); C. Vander Wende et al., Fed. Proc., 15, 494 (1956); Koster et al., Fed. Proc., 18, 412 (1959); and Witken et al., J. Pharmacol. exp. Ther., 133, 400-408 (1961).] Chemicals which may be used to induce this pain include phenylbenzoquinone (PBQ) and acetic acid. As a result of the chemical irritation to the animal, a characteristic stretching and writhing of the animal (dorsiflexion of the animal's back, extension of its hindlimbs and the strong contraction of its abdominal musculature) will generally occur. […] Drugs which reduce the number of writhes of the animal appear to restore the normal nociceptive threshold of the animal.
Charles River male albino mice, weighing 20 to 30 grams were used in this assay.
Thirty minutes after subcutaneous or intragastric administration to ten mice of either 10 mg or 30 mg per kilogram of body weight of a compound of the present invention ("test compound"), […] of body weight of a 0.025% w/v solution of PBQ was injected intraperitoneally into each mouse. Ten mice which were given saline in place of a test compound of the invention were used as a control group.
Five minutes later, each mouse was individually placed into a glass beaker for observation, and the number of writhes occurring during the following ten-minute period was counted.
A test compound was considered to have produced analgesia in a mouse if, in accordance with the conditions set forth above, and under the test criteria employed for this assay, after the administration of 10 or 30 mg per kilogram of body weight of a compound of the present invention to the mouse, the number of writhes elicited by a mouse injected with PBQ was equal to, or less than, one-half the median number of writhes recorded for the saline-treated control group of mice that day, as described by Taber in "Predictive Value of Analgesic Assays in Mice and Rats," Advances in Biochemical Psychopharmacology, 8, 191 (1974).
The results for the particular compounds of the present invention analyzed in this assay, and discussed in the examples identified below which correspond thereto, are presented in Table I below.
The standard initial screening doses of a test compound employed in this assay were 10 and/or […] of body weight for both routes of administration. If these initial screening doses of the test compound produced analgesia in seven of ten mice, then the effect of additional doses of the test compound on the writhing response was evaluated, and then the ED50 dose was generally calculated. (The slopes of the dose-response curves for all test compounds analyzed were compared as described by Tallarida and Murray, Manual of Pharmacologic Calculations, Page 11 (Springer Verlag, N.Y., 1981)).

[3] = system: isolated smooth muscle preparations; conditions: cited from earlier work
[4] = system: micturition of urethane-anesthetized rats; conditions: cited from earlier work
[5] = po, mouse, intragastric, read-out: PBQ writhing assay ED50, I.G.
[6] = Mus musculus, po, read-out: PBQ writhing assay ED50, I.G.

| SMILES | Kb [1] [nM] | PGE antagonism in guinea pig ileum, activity [1] | rank order of potency in the Writhing Assay [2] | other results |
| --- | --- | --- | --- | --- |
| O=C(Cc1cccs1)NCCC(=O)NNC(=O)N1Cc2ccccc2Oc2ccc(Cl)cc21 [Example 5, 8-chlorodibenz[b,f][1,4]oxazepine-10(11H)-carboxylic acid, 2-[1-oxo-3-[(2-thienylacetyl)amino]propyl]hydrazide] | 79.4 | Active | – | effectiveness as prostaglandin E2 antagonist relative to prostaglandin antagonists reported in the literature ([1]; compared with literature prostaglandin E2 antagonists): more than three to four times more effective |
| CC(C)(C)OC(=O)NCCC(=O)NNC(=O)N1Cc2ccccc2Oc2ccc(Cl)cc21 [Example 7, 8-chlorodibenz[b,f][1,4]oxazepine-10(11H)-carboxylic acid, 2-[3-[[(1,1-dimethylethoxy)carbonyl]amino]-1-oxopropyl]hydrazide] | 2510 | Active | – | – |
| O=C(CCNC(=O)Nc1ccc(C(F)(F)F)cc1)NNC(=O)N1Cc2ccccc2Oc2ccc(Cl)cc21 [Example 10, 8-chlorodibenz[b,f][1,4]oxazepine-10(11H)-carboxylic acid, 2-[1-oxo-3-[[[[(4-trifluoromethyl)phenyl]amino]carbonyl]amino]propyl]hydrazide] | 100 | Active | – | – |
| CS(=O)(=O)NCCC(=O)NNC(=O)N1Cc2ccccc2Oc2ccc(Cl)cc21 [Example 11, 8-chlorodibenz[b,f][1,4]oxazepine-10(11H)-carboxylic acid, 2-[3-[(methylsulfonyl)amino]-1-oxopropyl]hydrazide] | 794 | Active | Example 20>Example 27>Example 12>Example 11>Example 28 | ED50 [2, 5]: 9.7 mg/kg; ED50 ([2]; sc, mouse, subcutaneous, read-out: PBQ writhing assay ED50, S.C.): 3 mg/kg |
| CNC(=O)NCCC(=O)NNC(=O)N1Cc2ccccc2Oc2ccc(Cl)cc21 [Example 12, 8-chlorodibenz[b,f][1,4]oxazepine-10(11H)-carboxylic acid, 2-[3-[[(methylamino)carbonyl]amino]-1-oxopropyl]hydrazide] | – | – | Example 20>Example 27>Example 12>Example 11>Example 28 | ED50 [2, 5]: 8.4 mg/kg |
| CCOP(=O)(CC(=O)NNC(=O)N1Cc2ccccc2Oc2ccc(Cl)cc21)OCC [Example 20, 8-chlorodibenz[b,f][1,4]oxazepine-10(11H)-carboxylic acid, 2-[(diethoxyphosphinyl)acetyl]hydrazide] | 794 | Active | Example 20>Example 27>Example 12>Example 11>Example 28; also recorded: the most potent compound of the invention tested | ED50 [2, 6]: 8.2 mg/kg; ED50 ([2]; Mus musculus, sc, read-out: PBQ writhing assay ED50, S.C.): 7.1 mg/kg |
| O=C(CCNS(=O)(=O)c1ccccc1)NNC(=O)N1Cc2ccccc2Oc2ccc(Cl)cc21 [Example 24, 8-chlorodibenz[b,f][1,4]oxazepine-10(11H)-carboxylic acid, 2-[1-oxo-3-[(phenylsulfonyl)amino]propyl]hydrazide] | 2000 | Active | – | – |
| CCOP(=O)(O)CC(=O)NNC(=O)N1Cc2ccccc2Oc2ccc(Cl)cc21 [Example 27, 8-chlorodibenz[b,f][1,4]oxazepine-10(11H)-carboxylic acid, 2-[(ethoxyhydroxyphosphinyl)acetyl]hydrazide] | – | – | Example 20>Example 27>Example 12>Example 11>Example 28 | ED50 [2, 6]: 8.3 mg/kg |
| O=C(CP(=O)(O)O)NNC(=O)N1Cc2ccccc2Oc2ccc(Cl)cc21 [Example 28, 8-chlorodibenz[b,f][1,4]oxazepine-10(11H)-carboxylic acid, 2-(phosphonoacetyl)hydrazide] | – | – | Example 20>Example 27>Example 12>Example 11>Example 28 | ED50 [2, 5]: 11.2 mg/kg |
| O=C(Cc1ccccc1)NNC(=O)N1Cc2ccccc2Oc2ccc(Cl)cc21 [SC-18637] | – | – | – | inhibition of stimulant actions of prostaglandins [3]: inhibit the stimulant actions of prostaglandins on isolated smooth muscle preparations |
| CC(=O)NNC(=O)N1Cc2ccccc2Oc2ccc(Cl)cc21 [SC-19220] | – | – | – | bladder capacity [4]: increased the bladder capacity; voiding efficiency of micturition [4]: reduced the voiding efficiency of micturition; inhibition of stimulant actions of prostaglandins [3]: inhibit the stimulant actions of prostaglandins on isolated smooth muscle preparations |

From patent US5393747A, “Substituted dibenzoxazepine compounds for the treatment of convulsions, ischemia and other diseases responsive to prostaglandin-E2 antagonists” (G. D. Searle & Co., priority 1993, dated 1995)
